Publication PMC8039949, “A novel small-molecule PROTAC selectively promotes tau clearance to improve cognitive functions in Alzheimer-like models” (Theranostics, 2021)

Tested on: 3xTg-AD mice
Test: Multiple-doses subcutaneous administration in 3xTg-AD mice, behavior and synaptic function
Assay type: in vivo, mouse
Settings: 9.5 m-old 3xTg-AD mice, subcutaneous 3 mg/kg every 6 days, 5 times
Experimental: The Open field (OF) test was consisted of a 5 min session in a quadrate chamber (white opaque plastic). The chamber was divided into 16 square regions, a central field (center 4 square regions) and a periphery field. Each mouse was placed in the same position at the start of the test. Behaviors were recorded and analyzed by the video tracking system (Chengdu Taimeng Software Co., Ltd, China).
For novel object recognition (NOR) test, the mice were habituated to a quadrate chamber (white opaque plastic) for 5 min without objects 24 h prior to the test. The chamber was cleaned with 75% ethanol between each habituation period. The day after the mice re-entered the chamber from the same starting point and were given 10 min to familiarize themselves with the object A and object B. After each period the chamber and objects were cleaned with 75% ethanol. The next day after the familiarization period, object B was replaced with noval object C, and the mice were given 10 min to explore both objects. The exploring time in object A (TA) and C (TC) was recorded using the video tracking system. The discrimination index was calculated by (TC-TA)/(TA+TC).
The Elevated plus maze (EPM) test was performed as follows: mice were placed at the junction of the four arms of the maze (white opaque plastic), and started the test from facing an open arm. The chambers were cleaned with 75% ethanol before the next mouse was trained. The entries and duration time in each arm were recorded for 5 min by the video tracking system (Chengdu Taimeng Software Co., Ltd, China). An increase in open arm activity (duration and/or entries) reflects anti-anxiety behavior.
The Morris water maze (MWM) test was conducted to assess the spatial learning and memory. The maze was filled with water and divided into 4 quadrants with a platform placed in one quadrant. The mice were trained to find the hidden platform for 6 consecutive days, and underwent […] training trials (once per quadrant) per day from 14:00 to 20:00 pm. In each training trial, the mouse started from one of four quadrants facing the wall of the pool and the trial ended when the animal climbed on the platform. […] The spatial memory was tested 1 d after the last training by removed the platform. The longer a mouse stayed in the previous platform-located quadrant, the better it scored the spatial memory. A video camera, fixed to the ceiling 1.5 m from the water surface, was used to record the swimming path and the time for mice to find the platform (latency) or to pass through the previous platform-located quadrant each day. The camera was connected to a digital-tracking device attached to an IBM computer (Armonk, NY).
For fear conditioning (FC) test, the mice were placed into a square chamber with a grid floor. On the first day (day 1), each mouse was habituated to the chamber for 3 min, and then a foot shock (0.9 mA, 3 s) was delivered. Three sequential foot shocks at 3 min intervals were applied. Then the mice were returned to their home cages. On the next day (day 2), the mice were exposed to the same chamber without any stimulus for 3 min. The contextual conditioning was assessed by recording freezing behavior during the 3 min exposure. Freezing time during the 3 min was recorded for assessment of memory.
Mice used for electrophysiology experiments were deeply anesthetized as described above. When all pedal reflexes were abolished, brains were removed and placed in ice-cold oxygenated slicing solution containing the following: 225 mM sucrose, 3 mM KCl, 1.25 mM NaH2PO4, 24 mM NaHCO3, 6 mM MgSO4, 0.5 mM CaCl2, and 10 mM D-glucose. Coronal slices (300 μm thickness) were cut at 4-5 °C in the slicing solution using a Leica VT1000S vibratome and then transferred to an incubation chamber filled with oxygenated slicing solution in a 30 °C water bath for 1 h before being recorded. […]

CC(=O)N1CCCN(c2nc(NCCc3cccs3)nc(N(C)CC(=O)NCCOCCOCCOCC(=O)N[C@H](C(=O)N3C[C@H](O)C[C@H]3C(=O)NCc3ccc(-c4scnc4C)cc3)C(C)(C)C)n2)CC1 [C004019]
FC test, freezing index: restored the freezing index
NOR test, discrimination index: almost completely restored the memory ability
motor and anxiety levels (OF and EPM tests): did not significantly affect the motor and anxiety levels
MWM test, latency to reach the platform (6 days learning trial): shorter latency to reach the platform
spine density (Golgi-cox staining): restored spine density
neurite arborization (Sholl analysis): didn't have any effect on neurite arborization
LTP induction (fEPSP amplitude and slope) (hippocampal slices): restored
